Assay results reported in US8178506B2, “Oligomeric compounds and compositions for use in modulation of small non-coding RNAs” (Regulus Therapeutics Inc., priority 2003, dated 2012).
Where “and” joins values, the source holds several entries; their conditions need not be identical. Identical values can stand only once. In the oligonucleotide strings, read from the 5' end, every base follows the letter of its sugar. An asterisk marks phosphorothioate; unmarked linkages are phosphodiester. Other units and linkages are bracketed, terminal groups are in braces. A string of capitals states the bases alone. e = 2'-O-(2-methoxyethyl) (MOE); [5mC] = 5-methylcytosine; d = 2'-deoxy (DNA)

How the values were obtained:
HeLa cells = assay: Cell cycle assay in HeLa cells; assay type: cell-based, human; conditions: HeLa cells; for % cells in cell cycle phase: G1 / % cells in cell cycle phase: G2/M / % cells in cell cycle phase: S / % cells in cell cycle phase: aneuploid / % cells in cell cycle phase: subG1: 48 hours after treatment, relative to untreated control (UTC=100)
PEPCK-c = PEPCK-c mRNA expression in HepG2 cells; assay type: cell-based, human; conditions: for PEPCKc mRNA expression: Experiment 2, insulin treated: HepG2 cells transfected with oligomeric compound, 1 nM insulin for four hours, UTC + 1 nM insulin = 100; for PEPCKc mRNA: four hours, UTC = 100
[1] = 150 nM oligomeric compound, 24 hours, relative to untreated control (UTC = 100)
[2] = Experiment 1, basal (no insulin), HepG2, 100 nM oligomeric compound
[3] = Experiment 2, 1 nM insulin treated, HepG2, 100 nM oligomeric compound
[4] = HepG2 cells, Experiment 1, basal (no insulin)
[5] = 150 nM, 48 hours, relative to untreated control
[6] = Experiment 3, basal (no insulin), HepG2 cells, 48 hours post-transfection
[7] = Experiment 4, insulin-sensitization: HepG2 cells treated with 1 nM insulin for four hours, 48 h post-transfection, mRNA by real-time PCR

Substance	% cells aneuploid (HeLa cells; [1])	% cells in cell cycle phase G1 (HeLa cells; [1])	% cells in cell cycle phase G2/M (HeLa cells; [1])	% cells in cell cycle phase S (HeLa cells; [1])	% cells in cell cycle phase subG1 (HeLa cells; [1])	% cells in cell cycle phase: G1 (HeLa cells; 150 nM oligomeric compound)	% cells in cell cycle phase: G2/M (HeLa cells; 150 nM oligomeric compound)	% cells in cell cycle phase: S (HeLa cells; 150 nM oligomeric compound)	% cells in cell cycle phase: aneuploid (HeLa cells; 150 nM oligomeric compound)	% cells in cell cycle phase: subG1 (HeLa cells; 150 nM oligomeric compound)	PEPCK-c (% UTC) (PEPCK-c; [2])	PEPCK-c (% UTC) (PEPCK-c; [3])	PEPCKc mRNA (PEPCK-c; [4])	other results
327901 (antisense eT*eG*eA*eG*e[5mC]*eT*eA*e[5mC]*eA*eG*eT*eG*e[5mC]*eT*eT*e[5mC]*eA*eT*e[5mC]*eT*e[5mC]*eA) [compound 327901]	90%	101%	110%	94%	108%	98%	103%	104%	104%	93%	119	117		
327911 (antisense eG*e[5mC]*eT*eA*e[5mC]*e[5mC]*eT*eG*e[5mC]*eA*e[5mC]*eT*eG*eT*eA*eA*eG*e[5mC]*eA*e[5mC]*eT*eT*eT*eT) [compound 327911]	104%	130%	122%	62%	158%	99%	109%	96%	101%	65%			52	PEPCKc mRNA expression (PEPCK-c): 78
327878 (antisense e[5mC]*eT*eA*eG*eT*eG*eG*eT*e[5mC]*e[5mC]*eT*eA*eA*eA*e[5mC]*eA*eT*eT*eT*e[5mC]*eA*e[5mC]) [compound 327878]	73%	96%	122%	94%	124%	89%	114%	119%	92%	50%	45	29		
327889 (antisense eG*eT*eG*eG*eT*eA*eA*eT*e[5mC]*e[5mC]*e[5mC]*eT*eG*eG*e[5mC]*eA*eA*eT*eG*eT*eG*eA*eT) [compound 327889]	82%	104%	87%	102%	122%	78%	130%	137%	101%	133%	137	202		
328759 (antisense eG*eA*eG*eG*eG*dA*dT*dT*dG*dT*dA*dT*dG*dA*dA*e[5mC]*eA*eT*e[5mC]*eT) [compound 328759]	184%	88%	168%	78%	239%	50%	343%	31%	148%	1744%				% cells in cell cycle phase G1 (HeLa cells; [5]): 40%; % cells in cell cycle phase G2/M (HeLa cells; [5]): 203%; % cells in cell cycle phase S (HeLa cells; [5]): 82%; % cells in cell cycle phase aneuploid (HeLa cells; [5]): 223%; % cells in cell cycle phase subG1 (HeLa cells; [5]): 797%; PEPCK-c (% UTC) (PEPCK-c; [6]): 98 % UTC; PEPCK-c (% UTC) (PEPCK-c; [7]): 92 % UTC
327933 (antisense eA*eA*eG*eG*eG*eA*eT*eT*e[5mC]*e[5mC]*eT*eG*eG*eG*eA*eA*eA*eA*e[5mC]*eT*eG*eG*eA*e[5mC]) [compound 327933]	92% and 47%	102% and 90%	131% and 140%	83% and 91%	192% and 190%	76% and 80%	138% and 123%	135% and 133%	86% and 75%		118	115		
327876 (antisense eA*eA*e[5mC]*eA*e[5mC]*eT*eG*eA*eT*eT*eT*e[5mC]*eA*eA*eA*eT*eG*eG*eT*eG*e[5mC]*eT*eA) [compound 327876]	66% and 75%	98% and 93%	95% and 131%	104% and 92%	103% and 149%	87% and 76%	119% and 126%	120% and 141%	100% and 69%		119	176		
327892 (antisense eA*e[5mC]*eT*eT*eT*e[5mC]*eG*eG*eT*eT*eA*eT*e[5mC]*eT*eA*eG*e[5mC]*eT*eT*eT*eA) [compound 327892]	80%	86%	103%	111%	153%	74%	129%	150%	79%	121%	75	104		
340927 (antisense eT*eG*eA*eG*e[5mC]*dT*dA*d[5mC]*dA*dG*dT*dG*d[5mC]*dT*dT*e[5mC]*eA*eT*e[5mC]*eT*e[5mC]*eA) [compound 340927]	88% and 87%	121% and 128%	111% and 106%	75% and 71%	118% and 131%	91%	121% and 122%	107%	113% and 108%	95% and 83%	87	103		
327922 (antisense eT*e[5mC]*eA*eG*eT*eT*eT*eT*eG*e[5mC]*eA*eT*eG*eG*eA*eT*eT*eT*eG*e[5mC]*eA*e[5mC]*eA) [compound 327922]	104%	97%	114%	96%	131%	96%	109%	105%	91%	81%	77	76		
327916 (antisense eT*eG*eG*e[5mC]*eA*eT*eT*e[5mC]*eA*e[5mC]*e[5mC]*eG*e[5mC]*eG*eT*eG*e[5mC]*e[5mC]*eT*eT*eA*eA) [compound 327916]													88	PEPCKc mRNA expression (PEPCK-c): 88
341806 (antisense GCCAATATTTCTGTGCTGCTA; all 2'-MOE, all phosphorothioate, methylation of C not given here) [compound 341806]													79	
338664 (antisense e[5mC]*eA*eG*eA*e[5mC]*eT*e[5mC]*e[5mC]*e[5mC]*eA*eA*e[5mC]*eT*eG*eA*e[5mC]*e[5mC]*eA*eG*eA) [compound 338664]											75	76		
327887 (antisense eG*e[5mC]*eG*eA*e[5mC]*e[5mC]*eA*eT*eG*eG*e[5mC]*eT*eG*eT*eA*eG*eA*e[5mC]*eT*eG*eT*eT*eA) [compound 327887]													83	
341803 (antisense CCACACACTTCCTTACATTCCA; all 2'-MOE, all phosphorothioate, methylation of C not given here) [compound 341803]													110	
327913 (antisense eA*eA*e[5mC]*e[5mC]*eG*eA*eT*eT*eT*e[5mC]*eA*eA*eA*eT*eG*eG*eT*eG*e[5mC]*eT*eA*eG) [compound 327913]											229	268		
327954 (antisense eA*e[5mC]*eA*eA*eA*eG*eT*eT*e[5mC]*eT*eG*eT*eG*eA*eT*eG*e[5mC]*eA*e[5mC]*eT*eG*eA) [compound 327954]											79	102		
341804 (antisense ATCTGCACTGTCAGCACTTT; all 2'-MOE, all phosphorothioate, methylation of C not given here) [compound 341804]													44	
328677 (eT*e[5mC]*e[5mC]*eT*eG*dG*dA*dT*dG*dA*dT*dA*dT*d[5mC]*dT*eA*e[5mC]*e[5mC]*eT*e[5mC]; antisense) [compound 328677]														PEPCK-c (% UTC) (PEPCK-c; [6]): 145 % UTC; PEPCK-c (% UTC) (PEPCK-c; [7]): 117 % UTC
341807 (antisense CTGGGACTTTGTAGGCCAGTT; all 2'-MOE, all phosphorothioate, methylation of C not given here) [compound 341807]													97	
327880 (antisense eA*e[5mC]*eA*eA*eA*eT*eT*e[5mC]*eG*eG*eT*eT*e[5mC]*eT*eA*e[5mC]*eA*eG*eG*eG*eT*eA) [compound 327880]											110	125		
327941 (antisense eA*eA*e[5mC]*e[5mC]*e[5mC]*eA*e[5mC]*e[5mC]*eG*eA*e[5mC]*eA*eG*e[5mC]*eA*eA*eT*eG*eA*eA*eT*eG*eT*eT) [compound 327941]											101	98		
